Blank lines part the entries; values can stand above or below the molecule they belong to.
Test system: 997726-040-R-J2-PDC tumor spheroids, viability
Test: Anticancer human tumor 997726-040-R-J2-PDC patient-derived squamous cell lung carcinoma cell line growth inhibition [PI3K]
Details: spheroids with HUVEC and MSC; for IC50: curve of first compound; for viability, T/C: stronger effect = lower value
Summary of the method: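 Combination activity was assessed by viability in multicellular tumor spheroids carrying HUVEC and MSC components. Agents were tested with PI3K inhibitors from a Cmax-based top dose (or 10 microM) downward in half-log increments.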
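Note: spheroids exposed to compounds for seven days before readout.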

IC50 (second compound 0.0316 µM): 496 nM
IC50 (second compound 0.1 µM): 3510 nM
IC50 (second compound 0.316 µM): 3300 nM
IC50 (second compound 1 µM): 31.6 nM
IC50 (second compound 3.16 µM): < 31.6 nM
IC50 (second compound 10 µM): < 31.6 nM
Compound: CC1(C)CCC(Nc2ncc(C(F)(F)F)c(-c3c[nH]c4c(P(C)(C)=O)c(C#N)ccc34)n2)CN1 (centres undefined) + CC(Nc1ncnc2nc[nH]c12)c1cc2cccc(Cl)c2c(=O)n1-c1ccccc1
viability, T/C (second compound 0.0316 µM, first compound 0.0316 µM): 48.9%
viability, T/C (second compound 0.0316 µM, first compound 0.1 µM): 45.7%
viability, T/C (second compound 0.0316 µM, first compound 0.316 µM): 50%
viability, T/C (second compound 0.0316 µM, first compound 1 µM): 59.5%
viability, T/C (second compound 0.0316 µM, first compound 3.16 µM): 65.9%
viability, T/C (second compound 0.0316 µM, first compound 10 µM): 29.6%
viability, T/C (second compound 0.1 µM, first compound 0.0316 µM): 53.8%
viability, T/C (second compound 0.1 µM, first compound 0.1 µM): 51.6%
viability, T/C (second compound 0.1 µM, first compound 0.316 µM): 49.3%
viability, T/C (second compound 0.1 µM, first compound 1 µM): 48.5%
viability, T/C (second compound 0.1 µM, first compound 3.16 µM): 55.5%
viability, T/C (second compound 0.1 µM, first compound 10 µM): 33%
viability, T/C (second compound 0.316 µM, first compound 0.0316 µM): 52.3%
viability, T/C (second compound 0.316 µM, first compound 0.1 µM): 47.6%
viability, T/C (second compound 0.316 µM, first compound 0.316 µM): 45.3%
viability, T/C (second compound 0.316 µM, first compound 1 µM): 53.3%
viability, T/C (second compound 0.316 µM, first compound 3.16 µM): 56%
viability, T/C (second compound 0.316 µM, first compound 10 µM): 26.5%
viability, T/C (second compound 1 µM, first compound 0.0316 µM): 49.2%
viability, T/C (second compound 1 µM, first compound 0.1 µM): 46.2%
viability, T/C (second compound 1 µM, first compound 0.316 µM): 45.2%
viability, T/C (second compound 1 µM, first compound 1 µM): 44.7%
viability, T/C (second compound 1 µM, first compound 3.16 µM): 52.2%
viability, T/C (second compound 1 µM, first compound 10 µM): 27.3%
viability, T/C (second compound 3.16 µM, first compound 0.0316 µM): 42.1%
viability, T/C (second compound 3.16 µM, first compound 0.1 µM): 40.7%
viability, T/C (second compound 3.16 µM, first compound 0.316 µM): 36%
viability, T/C (second compound 3.16 µM, first compound 1 µM): 39.3%
viability, T/C (second compound 3.16 µM, first compound 3.16 µM): 53.8%
viability, T/C (second compound 3.16 µM, first compound 10 µM): 21.7%
viability, T/C (second compound 10 µM, first compound 0.0316 µM): 32%
viability, T/C (second compound 10 µM, first compound 0.1 µM): 29.2%
viability, T/C (second compound 10 µM, first compound 0.316 µM): 31.5%
viability, T/C (second compound 10 µM, first compound 1 µM): 37.7%
viability, T/C (second compound 10 µM, first compound 3.16 µM): 39.8%
viability, T/C (second compound 10 µM, first compound 10 µM): 14.1%

IC50 (second compound 0.00316 µM): 46.1 nM
IC50 (second compound 0.01 µM): < 9.49 nM
IC50 (second compound 0.0316 µM): < 9.49 nM
IC50 (second compound 0.1 µM): < 9.49 nM
IC50 (second compound 0.316 µM): < 9.49 nM
IC50 (second compound 1 µM): < 9.49 nM
Compound: Cn1cnc2c(F)c(Nc3ccc(Br)cc3Cl)c(C(=O)NOCCO)cc21 + COc1c(OCCCN2CCOCC2)ccc2c3n(c(=NC(=O)c4cnc(N)nc4)nc12)CCN3
viability, T/C (second compound 0.00316 µM, first compound 0.00949 µM): 60.5%
viability, T/C (second compound 0.00316 µM, first compound 0.03 µM): 55.1%
viability, T/C (second compound 0.00316 µM, first compound 0.0949 µM): 39.2%
viability, T/C (second compound 0.00316 µM, first compound 0.3 µM): 46.1%
viability, T/C (second compound 0.00316 µM, first compound 0.949 µM): 38%
viability, T/C (second compound 0.00316 µM, first compound 3 µM): 33.2%
viability, T/C (second compound 0.01 µM, first compound 0.00949 µM): 44.3%
viability, T/C (second compound 0.01 µM, first compound 0.03 µM): 43%
viability, T/C (second compound 0.01 µM, first compound 0.0949 µM): 39.1%
viability, T/C (second compound 0.01 µM, first compound 0.3 µM): 36.5%
viability, T/C (second compound 0.01 µM, first compound 0.949 µM): 28.6%
viability, T/C (second compound 0.01 µM, first compound 3 µM): 27.5%
viability, T/C (second compound 0.0316 µM, first compound 0.00949 µM): 36.6%
viability, T/C (second compound 0.0316 µM, first compound 0.03 µM): 33.4%
viability, T/C (second compound 0.0316 µM, first compound 0.0949 µM): 26.2%
viability, T/C (second compound 0.0316 µM, first compound 0.3 µM): 24.6%
viability, T/C (second compound 0.0316 µM, first compound 0.949 µM): 24.1%
viability, T/C (second compound 0.0316 µM, first compound 3 µM): 16.7%
viability, T/C (second compound 0.1 µM, first compound 0.00949 µM): 20.8%
viability, T/C (second compound 0.1 µM, first compound 0.03 µM): 20.8%
viability, T/C (second compound 0.1 µM, first compound 0.0949 µM): 15.6%
viability, T/C (second compound 0.1 µM, first compound 0.3 µM): 15.2%
viability, T/C (second compound 0.1 µM, first compound 0.949 µM): 14.7%
viability, T/C (second compound 0.1 µM, first compound 3 µM): 7.1%
viability, T/C (second compound 0.316 µM, first compound 0.00949 µM): 5.7%
viability, T/C (second compound 0.316 µM, first compound 0.03 µM): 5.13%
viability, T/C (second compound 0.316 µM, first compound 0.0949 µM): 2.49%
viability, T/C (second compound 0.316 µM, first compound 0.3 µM): 2.68%
viability, T/C (second compound 0.316 µM, first compound 0.949 µM): 1.51%
viability, T/C (second compound 0.316 µM, first compound 3 µM): 0.35%
viability, T/C (second compound 1 µM, first compound 0.00949 µM): 2.27%
viability, T/C (second compound 1 µM, first compound 0.03 µM): 1.05%
viability, T/C (second compound 1 µM, first compound 0.0949 µM): 0.66%
viability, T/C (second compound 1 µM, first compound 0.3 µM): 0.55%
viability, T/C (second compound 1 µM, first compound 0.949 µM): 0.39%
viability, T/C (second compound 1 µM, first compound 3 µM): 0.27%

From PubChem BioAssay AID1963964 (Molecular Pharmacology Branch, DTP, NCI, 2024)
